Data set [1] can be described thus: Kinematic viscosity (AVS 350 Viscosity Timer, glass viscometer). The data set is classed as physicochemical. On the procedure:
Kinematic viscosity of PE-1 was measured using a Viscosity Timer available under the trade designation “AVS 350” from SI Analytics, College Station, Tex., USA. For temperatures below 0° C., a temperature control bath available from Lawler Manufacturing Corporation, Edison, N.J., USA was used. The viscometer measurements stand and glass viscometer were immersed in a temperature-controlled liquid bath filled with NOVEC 7500. The Lawler temperature bath was fitted with a copper tubing coil for liquid nitrogen cooling with fine temperature control provided by the bath's electronic temperature control heater. The fluid was mechanically stirred to provide uniform temperature in the bath. The bath controls temperature within 0.1° C., measured by the built-in RTD temperature sensor. The sample liquid was added to the viscometer between the two fill lines etched on the viscometer. The AVS 350 automatically pumped the sample fluid above the upper timing mark then released the fluid followed by measurement of efflux times between the upper and lower timing marks. The fluid meniscus was detected by optical sensors as it passed each timing mark. The sample was drawn up and measured repeatedly, averaging multiple measurements.
The glass viscometers were calibrated using certified kinematic viscosity standard fluids available from Cannon Instrument Company, State College, Pa., USA to obtain a calibration constant (centistokes per second) for each viscometer.
The measured kinematic viscosity (centistokes) which is the average efflux time (seconds)×constant (centistokes/second) is presented in Table 3. The data summarized in Table 3 indicates a favorable low temperature liquid range, which renders these materials useful in heat transfer applications.

A short description of data set [2]: Thermal stability: stirred 24 h with or without adsorbent, purity by GC-FID. It is filed as physicochemical. On the procedure: The samples were stirred for 24 h at the temperatures indicated in Table 4 and then analyzed for purity by GC-FID.

`FC(F)(F)C(F)(F)C(F)(F)OC/C=C/COC(F)(F)C(F)(F)C(F)(F)F` [PE-1, (E)-1,4-bis(perfluoropropoxy)but-2-ene]: the “Kinematic Viscosity” value amounted to 3.16 cSt in data set [1] (0.0 °C); 4.28 cSt in data set [1] (−10.0 °C); 10.24 cSt in data set [1] (−30.0 °C); 17.44 cSt in data set [1] (−40.0 °C); 28.23 cSt in data set [1] (−50.0 °C); 59.59 cSt in data set [1] (−60.0 °C). In addition, the “Purity (thermal stability)” value in data set [2] (4 Angstrom Molecular Sieves 100 mg, 60 °C) is listed as 91.9%; in data set [2] (Activated Carbon 100 mg, 60 °C) it was 91.8%; in data set [2] (Basic Alumina 100 mg, 60 °C) it was 92.0%; in data set [2] (K2CO3 100 mg, 60 °C), 91.6%; in data set [2] (No Adsorbent, 25 °C), 91.7%; in data set [2] (No Adsorbent, 60 °C), 91.7%. The “Purity (thermal stability)” value in data set [2] (Silica Gel 100 mg, 60 °C) came to 91.7%.

For the origin of these results see patent US11535579B2, “Hydrofluoroolefin ethers, compositions, apparatuses and methods for using same” (3M INNOVATIVE PROPERTIES COMPANY, priority 2017, dated 2022).
